# Test results from patent US12077503B2, “Substituted cyclic amides and their use as herbicides” (FMC CORPORATION, priority 2015, dated 2024).
# Columns and labels:
# Format in all cases: in vivo
# [1] = test system: pigweed (Amaranthus retroflexus); experiment: Test A postemergence; conditions: Amaranthus retroflexus, post-emergence, 240 h, 125 g ai/ha, postemergence, visual injury vs untreated controls after approx. 10 d; 0 = no effect, 100 = complete control; read-out: Pigweed plant response rating (0 to 100 scale)
# How it was run: (§1)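 Treatment is preemergence as a directed soil spray after planting, or postemergence at the one- to two-leaf stage, with test chemical in a non-phytotoxic solvent mixture plus surfactant. Plants stay in the greenhouse about 10 d before visual injury scoring on a 0 to 100 scale versus untreated controls.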
# corn (Zea mays) = experiment: Test A postemergence; conditions: Zea mays, post-emergence, 240 h; for plant injury at 125 g/ha: 125 g ai/ha, postemergence, visual injury vs untreated controls after approx. 10 d, 0 = no effect, 100 = complete control, read-out: Corn plant response rating (0 to 100 scale); for Corn plant response rating (crop injury, 0 = no effect, 100 = complete kill) at 31 g/ha: Postemergence, 31 g ai/ha, visual injury after approx. 10 d, 0 to 100 scale, 100 complete control
# How it was run: as §1
# [2] = test system: Galium (catchweed bedstraw, Galium aparine); experiment: Test A postemergence; conditions: Galium, post-emergence, 240 h; for pest or weed control at 125 g/ha: 125 g ai/ha, postemergence, visual injury vs untreated controls after approx. 10 d, 0 = no effect, 100 = complete control, read-out: Galium plant response rating (0 to 100 scale); for pest or weed control at 31 g/ha: Postemergence, 31 g ai/ha, visual injury after approx. 10 d, 0 to 100 scale, 0 no effect, 100 complete control, read-out: Plant response rating, Galium
# How it was run: as §1
# [3] = test system: barnyardgrass (Echinochloa crus-galli); experiment: Test A postemergence; conditions: Echinochloa crus-galli, post-emergence, 240 h; for pest or weed control at 125 g/ha: 125 g ai/ha, postemergence, visual injury vs untreated controls after approx. 10 d, 0 = no effect, 100 = complete control, read-out: Barnyardgrass plant response rating (0 to 100 scale); for pest or weed control at 31 g/ha: Postemergence, 31 g ai/ha, visual injury after approx. 10 d, 0 to 100 scale, 0 no effect, 100 complete control, read-out: Plant response rating, Barnyardgrass
# How it was run: as §1
# [4] = test system: ragweed (common ragweed, Ambrosia elatior); experiment: Test A postemergence; conditions: Ambrosia artemisiifolia, post-emergence, 240 h, 125 g ai/ha, postemergence, visual injury vs untreated controls after approx. 10 d; 0 = no effect, 100 = complete control; read-out: Ragweed plant response rating (0 to 100 scale)
# How it was run: as §1
# [5] = test system: wheat (Triticum aestivum); experiment: Test A postemergence; conditions: Triticum aestivum, post-emergence, 240 h, 125 g ai/ha, postemergence, visual injury vs untreated controls after approx. 10 d; 0 = no effect, 100 = complete control; read-out: Wheat plant response rating (0 to 100 scale)
# How it was run: as §1
# [6] = test system: giant foxtail (Setaria faberii); experiment: Test A postemergence; conditions: Setaria faberi, post-emergence, 240 h; for pest or weed control at 125 g/ha: 125 g ai/ha, postemergence, visual injury vs untreated controls after approx. 10 d, 0 = no effect, 100 = complete control, read-out: Foxtail, Giant plant response rating (0 to 100 scale); for pest or weed control at 31 g/ha: Postemergence, 31 g ai/ha, visual injury after approx. 10 d, 0 to 100 scale, 0 no effect, 100 complete control, read-out: Plant response rating, Foxtail, Giant
# How it was run: as §1
# Kochia (Kochia scoparia) [7] = experiment: Test A postemergence; conditions: Bassia scoparia, post-emergence, 240 h; for pest or weed control at 125 g/ha: 125 g ai/ha, postemergence, visual injury vs untreated controls after approx. 10 d, 0 = no effect, 100 = complete control, read-out: Kochia plant response rating (0 to 100 scale); for pest or weed control at 31 g/ha: Postemergence, 31 g ai/ha, visual injury after approx. 10 d, 0 to 100 scale, 0 no effect, 100 complete control, read-out: Plant response rating, Kochia
# How it was run: as §1
# [8] = test system: blackgrass (Alopecurus myosuroides); experiment: Test A postemergence; conditions: Alopecurus myosuroides, post-emergence, 240 h; for pest or weed control at 125 g/ha: 125 g ai/ha, postemergence, visual injury vs untreated controls after approx. 10 d, 0 = no effect, 100 = complete control, read-out: Blackgrass plant response rating (0 to 100 scale); for pest or weed control at 31 g/ha: Postemergence, 31 g ai/ha, visual injury after approx. 10 d, 0 to 100 scale, 0 no effect, 100 complete control, read-out: Plant response rating, Blackgrass
# How it was run: as §1
# [9] = test system: ryegrass, Italian (Italian ryegrass, Lolium multiflorum); experiment: Test A postemergence; conditions: Lolium multiflorum, post-emergence, 240 h, 125 g ai/ha, postemergence, visual injury vs untreated controls after approx. 10 d; 0 = no effect, 100 = complete control; read-out: Ryegrass, Italian plant response rating (0 to 100 scale)
# How it was run: as §1
# [10] = test system: pigweed (Amaranthus retroflexus); experiment: Test A preemergence; conditions: Amaranthus retroflexus, pre-emergence, 240 h, 0 to 100 scale where 0 is no effect and 100 is complete control, read-out: Pigweed plant response rating; for pest or weed control at 31 g/ha: 31 g ai/ha, Preemergence; for pest or weed control at 125 g/ha: 125 g ai/ha, preemergence, approx. 10 d
# [11] = test system: barnyardgrass (Echinochloa crus-galli); experiment: Test A preemergence; conditions: Echinochloa crus-galli, pre-emergence, 240 h, 0 to 100 scale where 0 is no effect and 100 is complete control, read-out: Barnyardgrass plant response rating; for pest or weed control at 31 g/ha: 31 g ai/ha, Preemergence; for pest or weed control at 125 g/ha: 125 g ai/ha, preemergence, approx. 10 d
# How it was run: as §1
# [12] = test system: ragweed (common ragweed, Ambrosia elatior); experiment: Test A preemergence; conditions: Ambrosia artemisiifolia, pre-emergence, 240 h, 0 to 100 scale where 0 is no effect and 100 is complete control, read-out: Ragweed plant response rating; for pest or weed control at 31 g/ha: 31 g ai/ha, Preemergence; for pest or weed control at 125 g/ha: 125 g ai/ha, preemergence, approx. 10 d
# How it was run: as §1
# [13] = test system: giant foxtail (Setaria faberii); experiment: Test A preemergence; conditions: Setaria faberi, pre-emergence, 240 h, 0 to 100 scale where 0 is no effect and 100 is complete control, read-out: Foxtail, Giant plant response rating; for pest or weed control at 31 g/ha: 31 g ai/ha, Preemergence; for pest or weed control at 125 g/ha: 125 g ai/ha, preemergence, approx. 10 d
# How it was run: as §1
# Kochia (Kochia scoparia) [14] = experiment: Test A preemergence; conditions: Bassia scoparia, pre-emergence, 240 h, 0 to 100 scale where 0 is no effect and 100 is complete control, read-out: Kochia plant response rating; for pest or weed control at 31 g/ha: 31 g ai/ha, Preemergence; for pest or weed control at 125 g/ha: 125 g ai/ha, preemergence, approx. 10 d
# How it was run: as §1
# [15] = test system: ryegrass, Italian (Italian ryegrass, Lolium multiflorum); experiment: Test A preemergence; conditions: Lolium multiflorum, pre-emergence, 240 h, 0 to 100 scale where 0 is no effect and 100 is complete control, read-out: Ryegrass, Italian plant response rating; for pest or weed control at 31 g/ha: 31 g ai/ha, Preemergence; for pest or weed control at 125 g/ha: 125 g ai/ha, preemergence, approx. 10 d
# How it was run: as §1
# [16] = test system: ducksalad (Heteranthera limosa); experiment: Test B flooded paddy test; conditions: Heteranthera limosa, 250 g ai/ha, Flood; 0 to 100 scale where 0 is no effect and 100 is complete control; read-out: Ducksalad plant response rating
# How it was run: (§2)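 Compound goes directly into floodwater once pots are flooded 3 cm above soil, targeting plants at two leaves; the water depth is then held for the test duration. Plants sit 13–15 d in a greenhouse and are rated visually, 100 denoting complete control.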
# [17] = test system: sedge, umbrella (small-flower umbrella sedge, Cyperus difformis); experiment: Test B flooded paddy test; conditions: Cyperus difformis, 250 g ai/ha, Flood; 0 to 100 scale where 0 is no effect and 100 is complete control; read-out: Sedge, Umbrella plant response rating
# How it was run: as §2
# rice (Oryra sativa) = experiment: Test B flooded paddy test; conditions: Oryza sativa, 250 g ai/ha, Flood; 0 to 100 scale where 0 is no effect and 100 is complete control; read-out: Rice plant response rating
# How it was run: as §2
# [18] = test system: barnyardgrass (Echinochloa crus-galli); experiment: Test B flooded paddy test; conditions: Echinochloa crus-galli, 250 g ai/ha, Flood; 0 to 100 scale where 0 is no effect and 100 is complete control; read-out: Barnyardgrass plant response rating
# How it was run: as §2
Structure (SMILES),pest or weed control at 125 g/ha [1] [%],plant injury at 125 g/ha (corn (Zea mays)) [%],"Corn plant response rating (crop injury, 0 = no effect, 100 = complete kill) at 31 g/ha (corn (Zea mays)) [%]",pest or weed control at 125 g/ha [2] [%],pest or weed control at 31 g/ha [2] [%],pest or weed control at 125 g/ha [3] [%],pest or weed control at 31 g/ha [3] [%],pest or weed control at 125 g/ha [4] [%],plant injury at 125 g/ha [5] [%],pest or weed control at 125 g/ha [6] [%],pest or weed control at 31 g/ha [6] [%],pest or weed control at 31 g/ha (Kochia (Kochia scoparia) [7]) [%],pest or weed control at 125 g/ha [8] [%],pest or weed control at 31 g/ha [8] [%],pest or weed control at 125 g/ha [9] [%],pest or weed control at 31 g/ha [10] [%],pest or weed control at 125 g/ha [10] [%],pest or weed control at 31 g/ha [11] [%],pest or weed control at 125 g/ha [11] [%],pest or weed control at 31 g/ha [12] [%],other results
CN1C[C@H](c2ccc([Si](C)(C)C)cc2)[C@@H](C(=O)Nc2cccc(F)c2F)C1=O [Compound 1168],0,0,0,30,0,0,0,0,20,20,0,0,0,0,0,0,0,0,0,0,pest or weed control at 125 g/ha (Kochia (Kochia scoparia) [7]): 0%; pest or weed control at 125 g/ha [12]: 0%; pest or weed control at 31 g/ha [13]: 0%; pest or weed control at 125 g/ha [13]: 30%; pest or weed control at 31 g/ha (Kochia (Kochia scoparia) [14]): 0%; pest or weed control at 125 g/ha (Kochia (Kochia scoparia) [14]): 0%; pest or weed control at 31 g/ha [15]: 0%; pest or weed control at 125 g/ha [15]: 0%; pest or weed control at 250 g/ha [16]: 0%; pest or weed control at 250 g/ha [17]: 0%; pest or weed control at 250 g/ha (rice (Oryra sativa)): 30%; pest or weed control at 250 g/ha [18]: 40%
CON1CC[C@H](c2cccc(C(F)(F)F)c2)[C@@H](C(=O)Nc2cccc(F)c2F)C1=O [Compound 1169],0,0,0,0,0,80,30,0,0,70,30,0,0,0,0,0,0,70,90,0,pest or weed control at 125 g/ha (Kochia (Kochia scoparia) [7]): 20%; pest or weed control at 125 g/ha [12]: 0%; pest or weed control at 31 g/ha [13]: 70%; pest or weed control at 125 g/ha [13]: 90%; pest or weed control at 31 g/ha (Kochia (Kochia scoparia) [14]): 30%; pest or weed control at 125 g/ha (Kochia (Kochia scoparia) [14]): 30%; pest or weed control at 31 g/ha [15]: 0%; pest or weed control at 125 g/ha [15]: 0%; pest or weed control at 250 g/ha [16]: 0%; pest or weed control at 250 g/ha [17]: 0%; pest or weed control at 250 g/ha (rice (Oryra sativa)): 0%; pest or weed control at 250 g/ha [18]: 0%
CON1CC[C@H](c2cccc(C(F)(F)F)c2)[C@@H](C(=O)Nc2ccc(F)c(F)c2F)C1=O [Compound 1170],0,0,0,30,20,60,0,0,0,60,0,0,20,0,0,0,0,0,40,0,pest or weed control at 125 g/ha [12]: 0%; pest or weed control at 31 g/ha [13]: 0%; pest or weed control at 125 g/ha [13]: 70%; pest or weed control at 31 g/ha (Kochia (Kochia scoparia) [14]): 0%; pest or weed control at 125 g/ha (Kochia (Kochia scoparia) [14]): 0%; pest or weed control at 31 g/ha [15]: 0%; pest or weed control at 125 g/ha [15]: 0%; pest or weed control at 250 g/ha [16]: 40%; pest or weed control at 250 g/ha [17]: 0%; pest or weed control at 250 g/ha (rice (Oryra sativa)): 0%; pest or weed control at 250 g/ha [18]: 30%
